Several values for one entry are separate records, joined by “and”; a condition that tells them apart may be missing. Equal values may be shown once.
Columns and labels:
Parameters in all cases: species or system C57BL/6 mice
[1] = system: H7N9 avian influenza virus; conditions: mouse, in vivo
[2] = system: H7N9 avian influenza virus; conditions: mouse, in vivo, po
IL-1β = conditions: mouse, in vivo, po
IFN-γ = conditions: mouse, in vivo
[3] = system: H7N9 avian influenza virus; conditions: mouse, in vivo; remark: listed apart in the source

SMILES | Effect on weight loss caused by H7N9 infection (in words) [1] | Mortality [2] | Number of survivals 15 days post infection [2] | Survival rate [2] | IL-1β content in lung homogenate (IL-1β) | IFN-γ level vs control group (in words) (IFN-γ) | IFN-γ content in lung homogenate (IFN-γ; po) | Effect on proliferation of influenza virus in the lungs (in words) [3] | Virus content in the lungs (virus titer) ([3]; po)
CC[C@H](C)[C@H](N)C(=O)O [Isoleucine, isoleucine] | did not improve the weight loss | 100% | 0 | 0% | – | – | – | – | –
NCCCC[C@H](N)C(=O)O [Lysine, lysine] | alleviated the weight loss | 90% | 1 | 10% | – | – | – | – | –
CC(C)[C@H](N)C(=O)O [Valine, valine] | alleviated the weight loss | 60% | 4 | 40% | 691.546 ± 125.531 pg/mL and 512.836 ± 104.971 pg/mL | significantly higher | 121.927 ± 10.241 pg/mL and 108.583 ± 10.700 pg/mL | significantly reduce the proliferation | 4.168 ± 0.614 log10EID50/ml
